Measured values: US11231410B2, “Method for identifying a compound useful in mitigating and/or the treatment of a disease associated with abnormal astrocytic function” (Celica BIOMEDICAL, priority 2015, dated 2022)
Where two headings read alike, the source gives them in different places.

How the values were obtained:
GPR81 [1] = target: T1, GPR81 (Rattus norvegicus, UniProt B9UM24); settings: from European Patent Application No. 13 173 446, cited from earlier work
T1 construct: endogenous in cells; host or cells: cultured primary rat astrocytes transfected only with the cAMP sensors Epac1-camps or AKAR2
T1 sequence (B9UM24 1-351): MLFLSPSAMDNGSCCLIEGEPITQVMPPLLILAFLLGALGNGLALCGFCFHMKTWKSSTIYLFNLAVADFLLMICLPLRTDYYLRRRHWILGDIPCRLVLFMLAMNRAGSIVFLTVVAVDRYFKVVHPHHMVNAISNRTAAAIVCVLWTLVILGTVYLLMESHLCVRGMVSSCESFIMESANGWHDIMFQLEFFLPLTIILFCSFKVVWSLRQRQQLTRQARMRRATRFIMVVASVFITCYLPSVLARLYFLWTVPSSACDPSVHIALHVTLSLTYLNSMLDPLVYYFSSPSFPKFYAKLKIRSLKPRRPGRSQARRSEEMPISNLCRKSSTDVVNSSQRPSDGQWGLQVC

human HCAR1 (GPR81) = human HCAR1 (GPR81) (Homo sapiens, UniProt Q9BXC0); settings: cited from earlier work; for EC50 (in words): Dvorak et al. 2012, qualitative statement; for agonist activity at GPR81: Dvorak et al. 2012; for EC50: receptor activation, value from Dvorak et al. 2012
Sequence of human HCAR1 (GPR81) (Q9BXC0 whole entry): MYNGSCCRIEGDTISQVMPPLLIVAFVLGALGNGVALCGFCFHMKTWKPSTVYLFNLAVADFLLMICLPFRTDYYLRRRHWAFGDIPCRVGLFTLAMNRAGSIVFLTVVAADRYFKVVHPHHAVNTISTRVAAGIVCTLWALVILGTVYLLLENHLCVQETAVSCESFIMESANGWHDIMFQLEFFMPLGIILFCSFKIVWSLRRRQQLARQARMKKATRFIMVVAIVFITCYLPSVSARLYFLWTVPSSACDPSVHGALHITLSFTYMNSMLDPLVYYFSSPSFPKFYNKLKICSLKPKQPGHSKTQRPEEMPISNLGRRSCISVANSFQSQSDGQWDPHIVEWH

GPR81 [2] = target: T1, GPR81; assay: FRET nano-sensor (Epac1-camps / AKAR2) measurement of cytosolic cAMP in single cultured astrocytes, GPR81 ligands; format: cell-based; settings: for n decrease (cells with cAMP decrease): number of astrocytes responding with cAMP decrease; for n increase (cells with cAMP increase): number of astrocytes responding with cAMP increase; for n unresponsive (cells): number of unresponsive astrocytes; for % decrease (cells with cAMP decrease) / % increase (cells with cAMP increase) / % unresponsive (cells): share of all astrocytes tested; for responsiveness of cells (cAMP): compared with the high affinity molecule 3cl5hi
Text: (§1) As described in the previous European Patent Application No. 13 173 446, the cAMP level may, be determined by fluorescence nano-sensors in the astrocyte. In particular, the cAMP level may be determined by expressing the plasmid for FRET construct Epac1-camps or AKAR2. FRET signal is reported as the ratio of YFP to CFP fluorescence signal. The change in FRET signals reflects change in [cAMP]i. The inventions comprises of using MD and cAMP measurements.
(§2) As described in the previous European Patent Application No. 13 173 446, the cAMP level may, for instance, be determined by fluorescence nano-sensors in the astrocyte. In particular, the cAMP level may be determined by expressing the plasmid for FRET construct Epac1-camps or AKAR2. FRET construct are examined with immersion objective for fluorescent light and confocal microscope or other fluorescent microscope. Cells were excited at 458 nm or other suitable excitation wavelength of light and images are acquired every time interval. Emission spectra are collected from spectral detector or other suitable wavelength of light. Two-channel (CFP and YFP) images are generated from light detector. YFP and CFP fluorescence intensities are quantified within a region of interest selected for individual cell expressing Epac1-camps or AKAR2 using software. FRET signal is reported as the ratio of YFP to CFP fluorescence signal after subtracting the background fluorescence from both YFP and CFP signals. The change in FRET signals reflects change in [cAMP]i.
(§3) Cultured astrocytes, e.g. isolated as previously described by Schwartz & Wilson (Glia. 1992; 5(1):75-80) or any other cell type isolated from animal tissues or clonal cell lines derived from human or animal sources are seeded onto coverslips and maintained in an adequate cell cultured medium. All chemicals were from Sigma Aldrich (St. Louis, Mo., USA) unless otherwise noted.
(§4) Astrocytes expressing Epac1-camps or AKAR2 FRET construct were examined with a Plan NeoFluoar 40×/1.3 Oil DIC immersion objective (Carl Zeiss, Jena, Germany) and 2-fold zoom factor using Zeiss LSM510 META confocal microscope (Carl Zeiss, Jena, Germany). Cells were excited at 458 nm and images (512×512) were acquired every 3.5 s or 7 s using Lambda stack acquisition. Emission spectra were collected from META detector in eight channels (lambda stack) ranging from 470 nm to 545 nm, each with a 10.7-nm width. Two-channel (CFP and YFP) images were generated from lambda stacks by analytical software “Extract channels”. Channels with emission spectra 470- and 481-nm and emission spectra 513-, 524-, and 534-nm were extracted to CFP channel and YFP channel, respectively. YFP and CFP fluorescence intensities were quantified within a region of interest selected for individual cell expressing Epac1-camps or AKAR2 using LSM 510 META software. In the graphs, FRET signal is reported as the ratio of YFP to CFP fluorescence signal after subtracting the background fluorescence from both YFP and CFP signals using Sigma Plot.
(§5) The values of FRET signals were normalized (set to 1.0) at the onset of the experiments and averaged. The decrease in FRET signals in Epac1-camps experiments reflects an increase in [cAMP]i and the increase in FRET signals in AKAR2 experiments reflects increase in [cAMP]i.
(§6) Initially, astrocytes were kept in standard extracellular solution (10 mM Hepes/NaOH, pH 7.2, 10 mM D-glucose, 131.8 mM NaCl, 1.8 mM CaCl2, 2 mM MgCl2, and 5 mM KCl) and then treated with various reagents following a 100 s baseline.

Adrener. = assay: FRET nano-sensor measurement of cytosolic cAMP in single cultured astrocytes, adrenergic stimulus; format: cell-based, rat
Text: as §1, §2, §3, §4, §5, §6

human HCA1 = human HCA1 (Homo sapiens, UniProt Q9BXC0); settings: compared versus HCA2, Liu et al. 2012; cited from earlier work
Sequence of human HCA1 (Q9BXC0 whole entry): as above

Compound: O=C(O)c1cc(O)cc(Cl)c1 [Ligand 3cl5hi, 3-chloro-5-hydroxybenzoic acid, reference compound]
- intracellular cAMP levels in astrocytes (FRET ratio YFP/CFP) (GPR81 [1]; 500 μM 3-Cl-5-HBA, AKAR2 sensor, FIG. 9d): increases intracellular cAMP levels
- EC50 (in words) (human HCAR1 (GPR81)): relatively low EC50
- agonist activity at GPR81 (human HCAR1 (GPR81)): agonists
- n decrease (cells with cAMP decrease) (GPR81 [2]): 0 (0%)
- n increase (cells with cAMP increase) (GPR81 [2]): 21
- n unresponsive (cells) (GPR81 [2]): 14
- % decrease (cells with cAMP decrease) (GPR81 [2]): 0 (0%)
- % increase (cells with cAMP increase) (GPR81 [2]): (60%)
- % unresponsive (cells) (GPR81 [2]): 40%

Compound: NC[C@H](O)c1ccc(O)c(O)c1 [Norepinephrine]
- n decrease (cells with cAMP decrease) (Adrener.; number of astrocytes responding with cAMP decrease): 0 (0%)
- n increase (cells with cAMP increase) (Adrener.; number of astrocytes responding with cAMP increase): 11
- n unresponsive (cells) (Adrener.; number of unresponsive astrocytes): 3
- % decrease (cells with cAMP decrease) (Adrener.; share of all astrocytes tested): 0 (0%)
- % increase (cells with cAMP increase) (Adrener.; share of all astrocytes tested): (79%)
- % unresponsive (cells) (Adrener.; share of all astrocytes tested): 21%

Compound: Lactic acid/lactate [lakta]
- intracellular cAMP levels in astrocytes (FRET ratio YFP/CFP) (GPR81 [1]; 20 mM lactate, Epac1-camps and AKAR2 sensors, FIG. 9b-c): increases intracellular cAMP levels

Compound: O=C(O)c1cc(O)cc(-c2ccccc2)c1 [ph, 3-phenyl-5-hydroxybenzoic acid]
- EC50 (in words) (human HCAR1 (GPR81)): relatively high EC50

Compound: O=C(O)c1cc(O)cc(F)c1 [Ligand 3f5hi, 3-fluoro-5-hydroxybenzoic acid, reference compound]
- EC50 (in words) (human HCAR1 (GPR81)): relatively low EC50
- agonist activity at GPR81 (human HCAR1 (GPR81)): agonists

Compound: COc1cc(O)cc(C(=O)O)c1 [metoxi, 3-methoxy-5-hydroxybenzoic acid]
- EC50 (in words) (human HCAR1 (GPR81)): relatively high EC50
- EC50 (human HCAR1 (GPR81)): > 1000 µM
- responsiveness of cells (cAMP) (GPR81 [2]): responded much better
- n decrease (cells with cAMP decrease) (GPR81 [2]): 3
- n increase (cells with cAMP increase) (GPR81 [2]): 34
- n unresponsive (cells) (GPR81 [2]): 15
- % decrease (cells with cAMP decrease) (GPR81 [2]): 6%
- % increase (cells with cAMP increase) (GPR81 [2]): (65%)
- % unresponsive (cells) (GPR81 [2]): 29%

Compound: CC(C)(C)c1cc(O)cc(C(=O)O)c1 [but, 3-tertbutyl-5-hydroxybenzoic acid]
- EC50 (in words) (human HCAR1 (GPR81)): relatively high EC50
- EC50 (human HCAR1 (GPR81)): > 1000 µM
- responsiveness of cells (cAMP) (GPR81 [2]): responded much better
- n decrease (cells with cAMP decrease) (GPR81 [2]): 4
- n increase (cells with cAMP increase) (GPR81 [2]): 29
- n unresponsive (cells) (GPR81 [2]): 6
- % decrease (cells with cAMP decrease) (GPR81 [2]): 10%
- % increase (cells with cAMP increase) (GPR81 [2]): (75%)
- % unresponsive (cells) (GPR81 [2]): 15%

Compound: O=C(O)c1cc(O)cc(O)c1 [oh, 3,5-dihydroxybenzoic acid]
- selectivity for human HCA1 (human HCA1): selective agonist
